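Results reflect a 48-hour exposure of cells in 96-well plates to compound at five concentrations. TGI denotes the concentration required for complete inhibition of growth.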
Key:
Assay in all cases: growth of human tumour cells (NCI), 48 h
MOLT-4 leukemia = tested on: MOLT-4 leukemia
SK-MEL-28 melanoma = tested on: SK-MEL-28 melanoma
DLD-1 colon = tested on: DLD-1 colon
IGROV1 ovarian = tested on: IGROV1 ovarian
HCT-15 colon = tested on: HCT-15 colon
SR leukemia = tested on: SR leukemia
U251 CNS = tested on: U251 CNS
SK-MEL-5 melanoma = tested on: SK-MEL-5 melanoma
HOP-92 NSCLC = tested on: HOP-92 NSCLC
UO-31 renal = tested on: UO-31 renal
SW-620 colon = tested on: SW-620 colon
LXFL 529 NSCLC = tested on: LXFL 529 NSCLC
NCI-H522 lung = tested on: NCI-H522 lung
K-562 leukemia = tested on: K-562 leukemia
SF-295 CNS = tested on: SF-295 CNS
MALME-3M melanoma = tested on: MALME-3M melanoma
EKVX NSCLC = tested on: EKVX NSCLC
XF 498 CNS = tested on: XF 498 CNS
SK-OV-3 ovarian = tested on: SK-OV-3 ovarian
RPMI-8226 leukemia = tested on: RPMI-8226 leukemia
HL-60(TB) leukemia = tested on: HL-60(TB) leukemia
KM12 colon = tested on: KM12 colon
786-0 renal = tested on: 786-0 renal
NCI-H23 lung = tested on: NCI-H23 lung
RXF 393 renal = tested on: RXF 393 renal
SNB-78 CNS = tested on: SNB-78 CNS
CCRF-CEM leukemia = tested on: CCRF-CEM leukemia
SNB-19 CNS = tested on: SNB-19 CNS
SF-539 CNS = tested on: SF-539 CNS
OVCAR-5 ovarian = tested on: OVCAR-5 ovarian
LOX IMVI melanoma = tested on: LOX IMVI melanoma
HT29 colon = tested on: HT29 colon
A498 renal = tested on: A498 renal
HOP-62 NSCLC = tested on: HOP-62 NSCLC
A549 NSCLC = tested on: A549 NSCLC
SNB-75 CNS = tested on: SNB-75 CNS
ACHN renal = tested on: ACHN renal
SK-MEL-2 melanoma = tested on: SK-MEL-2 melanoma
CAKI-1 renal = tested on: CAKI-1 renal
M14 melanoma = tested on: M14 melanoma
OVCAR-8 ovarian = tested on: OVCAR-8 ovarian
DMS 273 small cell lung = tested on: DMS 273 small cell lung
SF-268 CNS = tested on: SF-268 CNS
UACC-62 melanoma = tested on: UACC-62 melanoma
TK-10 renal = tested on: TK-10 renal
OVCAR-3 ovarian = tested on: OVCAR-3 ovarian
OVCAR-4 ovarian = tested on: OVCAR-4 ovarian
COLO 205 colon = tested on: COLO 205 colon
M19-MEL melanoma = tested on: M19-MEL melanoma
NCI-H460 lung = tested on: NCI-H460 lung
HCC-2998 colon = tested on: HCC-2998 colon
HCT-116 colon = tested on: HCT-116 colon
DMS 114 small cell lung = tested on: DMS 114 small cell lung
UACC-257 melanoma = tested on: UACC-257 melanoma
NCI-H226 lung = tested on: NCI-H226 lung
SN12C renal = tested on: SN12C renal
HOP-18 NSCLC = tested on: HOP-18 NSCLC

Measured: TGI

COC1=CC(=O)[C@H]2[C@H](C)C(c3ccccc3)[C@@]2(C)C1=O (stereo partly specified)
not listed: HCT-116 colon | DMS 114 small cell lung | UACC-257 melanoma | NCI-H226 lung | SN12C renal | HOP-18 NSCLC
> 100 µM: all other assays above

COc1cc(C2C(Cl)C(=O)N2NC(=O)c2ccccc2O)ccc1O (stereo unspecified)
not listed: SR leukemia | HOP-92 NSCLC | SW-620 colon | EKVX NSCLC | RPMI-8226 leukemia | 786-0 renal | OVCAR-5 ovarian | HOP-62 NSCLC | SNB-75 CNS | CAKI-1 renal | OVCAR-4 ovarian | COLO 205 colon
> 100 µM: all other assays above
